How the values were obtained:
TNIK [1] = target: T1, TNIK (Homo sapiens (Human), UniProt Q9UKE5); experiment: In vitro TNIK kinase assay using ADP-Glo Kinase Assay system; format: biochemical; details: 100 μM ATP, MBP substrate; for IC50: 37° C. 30 min; for inhibition at 1 µM: compound at 1 μM
Experimental: 2. Efficacy of Inhibiting TNIK Activity, In Vitro TNIK Kinase Assay Using ADP-Glo™ Kinase Assay System
The inhibitory properties of compounds were evaluated with TNIK kinase enzyme system and luminescent ADP-Glo ? Kinase Assay from Promega Corporation according to the manufacturer's protocol. The tested compounds were incubated with TNIK kinases. Reactions were performed in 10 μl kinase buffer supplemented with reaction mixture containing 2 μl ATP, 2 μl MBP protein and 2 μl TNIK at 37° C. for 30 min. After kinase reaction, 5 μl reaction mixtures were transferred to 384 well assay plate (Greiner, solid white low-binding plates). Next, 5 μl of ADP-Glo Reagent was added to each well and incubated at 37° C. for 30 min. After 45 min, 10 μl Kinase Detection Reagent was added to each well and luminescence signal was detected with the SpectraMax M5e Microplate Reader (Molecular Devices, Menlo Park, Calif.) after 30 min at 37° C. incubation. The IC50 values were calculated using GraphPad Prism software (GraphPad Software Inc., La Jolla, Calif., USA) to determine kit performance. To the cut-off assay, the inhibitory activity of the compounds against TNIK kinase was expressed as the percentage of the kinase inhibitory activity for an indicated concentration of inhibitor. The IC s of the compounds against TNIK kinase values were calculated a log-concentration-response curve fitted with a four-parameter logistic equation and expressed dose-response curve for % of inhibitory activity versus log of the compound concentration.

TNIK [2] = target: T1, TNIK; experiment: In vitro TNIK kinase assay using qPCR (competition binding with liganded affinity beads); details: compound at 1 μM; kinase in eluate measured by qPCR
Experimental: 1. Efficacy of Inhibiting TNIK Activity, In Vitro TNIK Kinase Assay Using qPCR
For most assays, kinase-tagged T7 phage strains were grown in parallel in 24-well blocks in an E. coli host derived from the BL21 strain. E. coli were grown to log-phase and infected with T7 phage from a frozen stock (multiplicity of infection=0.4) and incubated with shaking at 32° C. until (90-150 minutes). The lysates were centrifuged (6,000×g) and filtered (0.2 μm) to remove cell debris. The remaining kinases were produced in HEK-293 cells and subsequently tagged with DNA for qPCR detection. Streptavidin-coated magnetic beads were treated with biotinylated small molecule ligands for 30 minutes at room temperature to generate affinity resins for kinase assays. The liganded beads were blocked with excess biotin and washed with blocking buffer (SeaBlock (Pierce), 1% BSA, 0.05% Tween 20, 1 mM DTT) to remove unbound ligand and to reduce non-specific phage binding. Binding reactions were assembled by combining kinases, liganded affinity beads, and test compounds in 1× binding buffer (20% SeaBlock, 0.17×PBS, 0.05% Tween 20, 6 mM DTT). Test compounds were prepared as 40× stocks in 100% DMSO and directly diluted into the assay. All reactions were performed in polypropylene 384-well plates in a final volume of 0.04 ml.
The assay plates were incubated at room temperature with shaking for 1 hour and the affinity beads were washed with wash buffer (1×PBS, 0.05% Tween 20). The beads were then re-suspended in elution buffer (1×PBS, 0.05% Tween 20, 0.5 μM non-biotinylated affinity ligand) and incubated at room temperature with shaking for 30 minutes. The kinase concentration in the eluates was measured by qPCR.

SW480 cells = experiment: Cell viability assay (CCK-8) using SW480 cell; format: cell-based; details: Homo sapiens, 48 h exposure
Experimental: (§1) 3. Efficacy of Inhibiting Cancer Cells Using Colon Cancer Cell Lines
(§2) The human colon cancer cell line SW480 (Catalog No. CCL-228) and SW620 (Catalog No. CCL-227) were obtained from the American Type Culture Collection (ATCC), and maintained in DMEM (Thermo Fisher Scientific Inc., Waltham, Mass., USA) supplemented with 10% fetal bovine serum (FBS) (Thermo Fisher Scientific Inc., Waltham, Mass.), 100 U/ml penicillin, and 100 µg/ml streptomycin (Gibco, Gaithersburg, Md.). Cells were grown at 37° C. in 5% CO2 for confluence.
(§3) Cell viability was measured using the Cell Counting Kit-8 (Dojindo Molecular Technologies). SW480 and SW620 cells (2.5×10^4 cells/well) were seeded in 96-well plates and incubated for 24 h. After incubation, the cells were exposed to serially diluted compounds (0.1, 0.3, 1, 3, 10 and 30 µM) in 100 μl phenol free DMEM medium containing 0.1% FBS. After 48 h, CCK-8 reagent was added at 10 μl per well and incubated for 1 h at 37° C. Optical density was measured at 450 nm using a microplate reader (Bio-Rad Laboratories, Hercules, Calif.). The IC50 values were calculated using GraphPad Prism software (GraphPad Software Inc., La Jolla, Calif., USA) to determine kit performance. Experiments were performed in triplicate.

SW620 cells = experiment: Cell viability assay (CCK-8) using SW620 cell; format: cell-based; details: Homo sapiens, SW-620, 48 h exposure
Experimental: as §1, §2, §3

T1 sequence (Q9UKE5 whole entry): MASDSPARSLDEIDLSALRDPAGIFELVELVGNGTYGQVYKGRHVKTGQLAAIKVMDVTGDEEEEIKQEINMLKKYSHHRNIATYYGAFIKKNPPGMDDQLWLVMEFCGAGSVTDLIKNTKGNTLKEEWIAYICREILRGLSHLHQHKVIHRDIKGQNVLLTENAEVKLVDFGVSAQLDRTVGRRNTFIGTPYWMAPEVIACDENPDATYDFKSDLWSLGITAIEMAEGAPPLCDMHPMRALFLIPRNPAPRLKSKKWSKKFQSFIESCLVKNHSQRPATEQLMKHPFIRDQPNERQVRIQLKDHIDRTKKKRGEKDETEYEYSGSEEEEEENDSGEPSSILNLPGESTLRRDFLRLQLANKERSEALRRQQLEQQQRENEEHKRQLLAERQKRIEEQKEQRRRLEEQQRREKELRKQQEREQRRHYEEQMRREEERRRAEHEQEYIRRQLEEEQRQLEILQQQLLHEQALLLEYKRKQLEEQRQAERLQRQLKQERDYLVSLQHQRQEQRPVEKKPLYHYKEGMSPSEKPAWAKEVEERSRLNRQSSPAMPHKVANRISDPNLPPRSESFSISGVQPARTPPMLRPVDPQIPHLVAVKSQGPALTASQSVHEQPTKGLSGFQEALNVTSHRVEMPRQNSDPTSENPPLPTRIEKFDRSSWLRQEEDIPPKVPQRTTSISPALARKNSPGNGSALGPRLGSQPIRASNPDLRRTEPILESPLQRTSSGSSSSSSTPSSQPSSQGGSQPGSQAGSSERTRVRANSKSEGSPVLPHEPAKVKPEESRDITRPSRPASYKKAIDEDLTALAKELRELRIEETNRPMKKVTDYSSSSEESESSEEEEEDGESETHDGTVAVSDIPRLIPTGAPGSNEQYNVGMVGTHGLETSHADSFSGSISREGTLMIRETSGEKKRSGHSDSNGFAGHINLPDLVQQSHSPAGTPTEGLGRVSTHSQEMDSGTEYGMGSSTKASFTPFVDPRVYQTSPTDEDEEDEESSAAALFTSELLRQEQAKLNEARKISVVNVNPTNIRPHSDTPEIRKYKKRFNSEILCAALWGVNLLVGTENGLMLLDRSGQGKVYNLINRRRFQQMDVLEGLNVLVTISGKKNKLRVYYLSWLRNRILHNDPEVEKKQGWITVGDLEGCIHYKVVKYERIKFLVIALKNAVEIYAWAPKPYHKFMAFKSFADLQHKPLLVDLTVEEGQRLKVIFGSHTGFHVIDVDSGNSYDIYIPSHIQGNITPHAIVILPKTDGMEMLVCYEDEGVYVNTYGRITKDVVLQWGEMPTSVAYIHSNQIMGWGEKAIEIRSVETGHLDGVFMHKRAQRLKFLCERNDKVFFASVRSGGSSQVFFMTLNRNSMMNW

Compound	IC50 (TNIK [1]) [nM]	inhibition at 1 µM (TNIK [1]) [%]	activity at 1 µM (TNIK [2]) [%]	IC50 (SW480 cells) [µM]	IC50 (SW620 cells) [µM]
O=C1CCc2cc(Nc3cc(-c4ccc(-n5cccn5)cc4)[nH]n3)ccc2N1 [Compound 7, 6-((5-(4-(1H-pyrazol-1-yl)phenyl)-1H-pyrazol-3-yl)amino)-3,4-dihydroquinolin-2(1H)-one]	1	–	–	–	–
Oc1ccc(-c2cc(Nc3ccc4[nH]ncc4c3)n[nH]2)cc1 [Compound 11, 4-(3-((1H-indazol-5-yl)amino)-1H-pyrazol-5-yl)phenol]	29	94	–	–	–
O=C1COc2cc(Nc3cc(-c4ccc(O)cc4)[nH]n3)ccc2N1 [Compound 14, 7-((5-(4-hydroxyphenyl)-1H-pyrazol-3-yl)amino)-2H-benzo[b][1,4]oxazin-3(4H)-one]	–	97	–	–	–
COc1ccc(-c2cc(Nc3ccc4[nH]c(=O)[nH]c4c3)n[nH]2)cc1 [Compound 3, 5-((5-(4-methoxyphenyl)-1H-pyrazol-3-yl)amino)-1,3-dihydro-2H-benzo[d]imidazol-2-one]	–	79	7	–	–
COc1ccc(-c2cc(Nc3ccc4[nH]ccc4c3)n[nH]2)cc1 [Compound 1, N-(5-(4-methoxyphenyl)-1H-pyrazol-3-yl)-1H-indol-5-amine]	–	–	16	–	–
O=C1CCc2cc(Nc3cc(-c4ccc(O)cc4)[nH]n3)ccc2N1 [Compound 6, 6-((5-(4-hydroxyphenyl)-1H-pyrazol-3-yl)amino)-3,4-dihydroquinolin-2(1H)-one]	62	96	–	–	–
O=C1COc2cc(Nc3cc(-c4ccc(-n5cccn5)cc4)[nH]n3)ccc2N1 [Compound 13, 7-((5-(4-(1H-pyrazol-1-yl)phenyl)-1H-pyrazol-3-yl)amino)-2H-benzo[b][1,4]oxazin-3(4H)-one]	7	90	–	–	–
O=C1Cc2cc(Nc3cc(-c4ccc(O)c(F)c4)[nH]n3)ccc2N1 [Compound 8, 5-((5-(3-fluoro-4-hydroxyphenyl)-1H-pyrazol-3-yl)amino)indolin-2-one]	1	88	–	–	–
COc1ccc(-c2cc(Nc3ccc4cn[nH]c4c3)n[nH]2)cc1 [Compound 4, N-(5-(4-methoxyphenyl)-1H-pyrazol-3-yl)-1H-indazol-6-amine]	–	–	8	–	–
COc1ccc(-c2cc(Nc3ccc4[nH]ncc4c3)n[nH]2)cc1 [Compound 2, N-(5-(4-methoxyphenyl)-1H-pyrazol-3-yl)-1H-indazol-5-amine]	94	99	21	4.5	1.2
O=C1CCc2cc(Nc3cc(-c4ccc(-n5ccnc5)cc4)[nH]n3)ccc2N1 [Compound 9, 6-((5-(4-(1H-imidazol-1-yl)phenyl)-1H-pyrazol-3-yl)amino)-3,4-dihydroquinolin-2(1H)-one]	1	98	–	–	–
c1cnn(-c2ccc(-c3cc(Nc4ccc5[nH]ncc5c4)n[nH]3)cc2)c1 [Compound 10, N-(5-(4-(1H-pyrazol-1-yl)phenyl)-1H-pyrazol-3-yl)-1H-indazol-5-amine]	55	99	–	–	–
Oc1ccc(-c2cc(Nc3ccc4[nH]ncc4c3)n[nH]2)cc1F [Compound 12, 4-(3-((1H-indazol-5-yl)amino)-1H-pyrazol-5-yl)-2-fluorophenol]	45	93	–	–	13
Cc1nc2cc(Nc3cc(-c4ccc(-n5cccn5)cc4)[nH]n3)ccc2[nH]1 [Compound 18, N-(5-(4-(1H-pyrazol-1-yl)phenyl)-1H-pyrazol-3-yl)-2-methyl-1H-benzo[d]imidazol-5-amine]	96	99	–	21	3.4
